Where “and” joins values, the source holds several entries; their conditions need not be identical. Equal entries are not always repeated.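 Values below derive from 48-hour exposures of cells grown in 96-well plates, with endpoints linearly interpolated between the two concentrations bracketing the appropriate inhibition level. At the GI50, growth is halved. TGI: total growth inhibition.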
Experiments:
Assay in all cases: inhibition of tumour cell growth, NCI panel, 48 h
[1] = tested on: MOLT-4 leukemia
[2] = tested on: M14 melanoma
[3] = tested on: 786-0 renal
[4] = tested on: OVCAR-8 ovarian
[5] = tested on: SW-620 colon
[6] = tested on: NCI-H522 lung
[7] = tested on: NCI-H460 lung
[8] = tested on: T-47D breast
[9] = tested on: OVCAR-5 ovarian
[10] = tested on: U251 CNS

Row | Compound | GI50 [1] [µM] | TGI [1] | GI50 [2] | TGI [2] | GI50 [3] | TGI [3] | GI50 [4] | TGI [4] [µM] | GI50 [5] [µM] | TGI [5] [µM] | GI50 [6] [µM] | TGI [6] | GI50 [7] | TGI [7] | GI50 [8] [µM] | TGI [8] | GI50 [9] | TGI [9] | GI50 [10] | TGI [10]
1 | Nc1cc(C(F)(F)F)c(-c2nc(N3CCOCC3)nc(N3CCOCC3)n2)cn1 | 0.426 | 39.8 µM | 0.401 µM | 14.1 µM | 0.482 µM | 6.33 µM | 0.89 µM | > 66.1 | 0.921 | > 100 | 0.624 | > 83.9 µM | 0.299 µM | > 53.3 µM | 0.0328 | 0.347 µM | 0.192 µM | > 100 µM | 1.22 µM | 44.2 µM
2 | COc1ccc(-n2c(=O)c3ccccc3n(Cc3ccc(C(=O)NO)cc3)c2=O)cc1 | 3.21 | > 100 µM | 1.71 µM | 3.44 µM | 2.53 µM | 7.09 µM | 1.8 µM | 5.88 | 2.13 | 6.97 | 1.45 | 4.07 µM | 2.58 µM | 12.9 µM | 1.9 | 6.63 µM | 2.34 µM | 7.56 µM | 1.78 µM | 3.58 µM
3 | CC1=C(C(=O)Nc2ccc3[nH]ncc3c2)C(c2ccc(F)cc2)N=C(c2ccc(C(F)(F)F)nc2)N1 (stereo not given) | 11.9 | > 25 µM | 10.4 µM | > 25 µM | 10.8 µM | > 25 µM | 20.2 µM | > 25 | 11.6 | > 25 | 7.06 | > 25 µM | 11.8 µM | > 25 µM | > 20 | > 25 µM | > 25 µM | > 25 µM | 17.1 µM | > 25 µM
4 | CCCCCCCCCCN=C(N)c1ccc(N2CCN(c3ccc(C(N)=NCCCCCCCCCC)cc3)CC2)cc1 | > 50 | > 50 µM | 18 µM | > 50 µM | 16 µM | > 50 µM | 2.62 µM | > 50 | 2.65 | > 50 | 3.75 | > 50 µM | 1.97 µM | > 50 µM | 5.91 | 18.8 µM | 5.25 µM | > 50 µM | 2.44 µM | > 50 µM
5 | O=C1c2ccccc2N1C(=O)c1ccccc1[N+](=O)[O-] |  | > 100 µM |  | > 100 µM |  | > 100 µM |  | > 100 |  | > 100 |  | > 100 µM |  | > 100 µM |  | > 100 µM |  | > 100 µM |  | > 100 µM
6 | CC1(C)CC2=NO[Se]3=C2C(=NO3)C1 |  | 9.41 µM |  | 6.25 µM |  | 12.4 µM |  | 16.4 |  | 12.3 |  | 5.46 µM |  | 4.05 µM |  | 24.7 µM |  | 20.5 µM |  | 18.7 µM
7 | COc1nc(N)nc2nc[nH]c12 | > 800 | 500 µM and > 800 µM and > 1000 µM | 772 µM and 585 µM | 500 µM and 800 µM and > 1000 µM | 639 µM and 214 µM | 500 µM and 800 µM and > 418 µM | > 800 µM and 579 µM | > 800 | > 1000 | > 1000 | 554 | 500 µM and 800 µM and > 917 µM | 674 µM and 588 µM | 500 µM and 800 µM and > 1000 µM | > 779 | 500 µM and > 1000 µM | 401 µM and > 728 µM | 491 µM and 800 µM and > 1000 µM | > 800 µM and 741 µM | 500 µM and > 800 µM and > 1000 µM
